Experimental data reported in BigSolDB 2.1.

## COc1ccc([C@@H]2CC(=O)c3c(O)cc(O[C@@H]4O[C@H](CO[C@@H]5O[C@@H](C)[C@H](O)[C@@H](O)[C@H]5O)[C@@H](O)[C@H](O)[C@H]4O)cc3O2)cc1O
In PEG-400, 298.15 K
  solubility (mole fraction): 0.00633
In PEG-400, 303.15 K
  solubility (mole fraction): 0.00749
In PEG-400, 313.15 K
  solubility (mole fraction): 0.00985
In PEG-400, 323.15 K
  solubility (mole fraction): 0.0124
In PEG-400, 333.15 K
  solubility (mole fraction): 0.0152
In ethanol, 298.15 K
  solubility (mole fraction): 3.45e-05
In ethanol, 303.15 K
  solubility (mole fraction): 3.95e-05
In ethanol, 313.15 K
  solubility (mole fraction): 5.27e-05
In ethanol, 323.15 K
  solubility (mole fraction): 6.56e-05
In ethanol, 333.15 K
  solubility (mole fraction): 8.45e-05
In isopropanol, 298.15 K
  solubility (mole fraction): 1.53e-05
In isopropanol, 303.15 K
  solubility (mole fraction): 1.87e-05
In isopropanol, 313.15 K
  solubility (mole fraction): 2.61e-05
In isopropanol, 323.15 K
  solubility (mole fraction): 3.82e-05
In isopropanol, 333.15 K
  solubility (mole fraction): 5.86e-05
In n-butanol, 298.15 K
  solubility (mole fraction): 0.000315
In n-butanol, 303.15 K
  solubility (mole fraction): 0.000359
In n-butanol, 313.15 K
  solubility (mole fraction): 0.000461
In n-butanol, 323.15 K
  solubility (mole fraction): 0.000582
In n-butanol, 333.15 K
  solubility (mole fraction): 0.000715
In propylene glycol, 298.15 K
  solubility (mole fraction): 0.000535
In propylene glycol, 303.15 K
  solubility (mole fraction): 0.000647
In propylene glycol, 313.15 K
  solubility (mole fraction): 0.000886
In propylene glycol, 323.15 K
  solubility (mole fraction): 0.00114
In propylene glycol, 333.15 K
  solubility (mole fraction): 0.00158
In water, 298.15 K
  solubility (mole fraction): 1.47e-07
In water, 303.15 K
  solubility (mole fraction): 1.52e-07
In water, 313.15 K
  solubility (mole fraction): 1.61e-07
In water, 323.15 K
  solubility (mole fraction): 1.7e-07
In water, 333.15 K
  solubility (mole fraction): 1.8e-07
